Laboratory results reported in paper PMC11036078, “PD‐1 inhibition with retifanlimab and/or arginase inhibition with INCB001158 in Japanese patients with solid tumors: A phase I study” (Cancer Medicine, 2024).
Read-outs that look alike come from different tables or passages of the source.

Experiments:
[1] = INCB001158 plasma pharmacokinetics (LC-MS/MS, noncompartmental analysis); type: in vivo, Japanese patients; settings: for Cmax: read-out: INCB001158 geometric mean Cmax
Method: Pharmacokinetics of single‐agent retifanlimab and INCB001158, and the combination, were secondary endpoints of the study. The detection of anti‐drug antibodies (ADAs) was an exploratory endpoint. Blood samples for retifanlimab PK assessments were taken on days 1 (−2 h pre‐dose, end of infusion, and 6 h post‐dose), 2, 8, and 15 (no specified time) of cycle 1, day 1 of cycles 2–8 (−2 h pre‐dose, and end of infusion on cycles 2 and 6 only), and day 1 of every 4 cycles after cycle 8 (−2 h pre‐dose). Samples for ADA assessment were collected at the same time as for PK analysis, and an additional sample was collected at safety follow‐up on day 15 (no specified time). Blood samples for INCB001158 were collected pre‐dose, 0.5, 1, 2, 4, 6, and 8 h post‐dose on days 1 and 15 of cycle 1, 12 h post‐dose on day 1 of cycle 1, and pre‐dose on days 2 and 8 for cycle 1, and day 1 of cycle 2. Serum concentrations of retifanlimab were determined using an electrochemiluminescence immunoassay method, and plasma concentrations of INCB001158 were measured using a validated liquid chromatography with tandem mass spectrometry assay (Incyte Corporation, Wilmington, DE, USA). ADAs against retifanlimab were monitored using a bridging immunoassay (Incyte Corporation).
Pharmacokinetics parameters were derived from concentrations versus time data using model‐independent noncompartmental analysis methods (WinNonlin v8.2, Certara USA Inc., Princeton, NJ, USA), and included maximum observed serum or plasma concentration (C max), serum or plasma concentration observed at the end of the dosing interval (C tau), time to maximum observed serum or plasma concentration (t max), area under the serum or plasma concentration–time curve (AUC) from time 0 to the end of the dosing interval (AUCtau), AUC from time 0 to infinity (AUC0‐∞), apparent terminal‐phase disposition half‐life, clearance, and volume of distribution. […]

urea cycle = assay: Pharmacodynamics: urinary orotic acid and plasma ammonia (urea cycle inhibition); type: in vivo, Japanese patients
Method: Pharmacodynamics of INCB001158 alone or in combination were assessed as an exploratory objective. Urine was collected at regular intervals from patients in the INCB001158 monotherapy and combination groups to assess urinary orotic acid levels and evaluate whether INCB001158 inhibits the urea cycle. Plasma samples from patients in these groups were also assessed for ammonia, arginine, and ornithine levels.

[2] = steady-state, 100 mg BID oral, monotherapy: two individual values (n = 2), combination n = 5 mean ± SD (geometric mean)

C[C@H](N)C(=O)N1C[C@H](CCCB(O)O)[C@](N)(C(=O)O)C1 [INCB001158]
PK of INCB001158 in combination with retifanlimab versus INCB001158 monotherapy ([1]; Japanese patients): comparable | Drug–drug interaction (INCB001158 PK, combination vs monotherapy cohorts) ([1]; combination cohort): no drug–drug interaction | AUC ([1]; human, plasma, oral, 100 mg, first dose, 100 mg BID monotherapy, read-out: INCB001158 geometric mean AUC0‐∞): 17900 ng·h/mL | AUC ([1]; human, plasma, oral, 100 mg, first dose, 100 mg BID monotherapy, read-out: INCB001158 geometric mean AUCtau): 13700 ng·h/mL | Cmax ([1]; human, plasma, oral, 100 mg, first dose, 100 mg BID monotherapy): 1740 ng/mL | Tmax ([1]; human, plasma, oral, 100 mg, first dose, 100 mg BID monotherapy, read-out: INCB001158 median tmax): 3.9 h | AUC ([1]; human, plasma, oral, 100 mg, steady‐state, 100‐mg BID monotherapy, read-out: INCB001158 geometric mean AUCtau): 23200 ng·h/mL | Cmax ([1]; human, plasma, oral, 100 mg, steady‐state, 100‐mg BID monotherapy): 2690 ng/mL | Tmax ([1]; human, plasma, oral, 100 mg, steady‐state, 100‐mg BID monotherapy, read-out: INCB001158 median tmax): 3.8 h | Tmax ([1]; human, plasma, po, 75 mg, first dose, 75 mg BID oral, n = 3, median (min, max), read-out: INCB001158 tmax): 3.9 h | Tmax ([1]; human, plasma, po, 75 mg, steady-state, 75 mg BID oral, n = 3, median (min, max), read-out: INCB001158 tmax): 3.9 h | Tmax ([1]; human, plasma, po, 100 mg, first dose, 100 mg BID oral, monotherapy n = 3, combination n = 6, median (min, max), read-out: INCB001158 tmax): 3.9 h | Tmax ([1]; human, plasma, po, 100 mg, steady-state, 100 mg BID oral, monotherapy n = 3, combination n = 5, median (min, max), read-out: INCB001158 tmax): 3.8 h | Vd/F ([1]; human, plasma, po, 100 mg, steady-state, 100 mg BID oral, monotherapy: two individual values (n = 2), combination n = 5 mean ± SD (geometric mean), read-out: INCB001158 Vz/F): 44.9 L | half-life ([1]; human, plasma, po, 100 mg, steady-state, 100 mg BID oral, monotherapy: two individual values (n = 2), combination n = 5 mean ± SD (geometric mean), read-out: INCB001158 t½ (converted)): 6.25 h | INCB001158 Vz/F [1, 2]: 39.3 L | INCB001158 t½ [1, 2]: 5.50 h | INCB001158 geometric mean Ctau ([1]; steady‐state, 100‐mg BID monotherapy): 1130 ng/mL | Urine orotic acid (urea cycle; change from baseline): no marked rises | Symptoms of significant urea cycle inhibition (urea cycle; e.g., unexplained anorexia, nausea, vomiting): no symptoms | Plasma ammonia (urea cycle; patients receiving INCB001158): no concurrent increases | Urea cycle inhibition (urea cycle; patients receiving INCB001158): no evidence of consistent urea cycle inhibition
